Laboratory results: article PMC10193543 (ACS Omega, 2023)

Legend:
[1] = target: T1, mushroom TYR (Agaricus bisporus, UniProt C7FF04); assay: Kinetic study of tyrosinase inhibitory activity; format: biochemical
Target sequence in this assay (C7FF04 1-392 limits assumed): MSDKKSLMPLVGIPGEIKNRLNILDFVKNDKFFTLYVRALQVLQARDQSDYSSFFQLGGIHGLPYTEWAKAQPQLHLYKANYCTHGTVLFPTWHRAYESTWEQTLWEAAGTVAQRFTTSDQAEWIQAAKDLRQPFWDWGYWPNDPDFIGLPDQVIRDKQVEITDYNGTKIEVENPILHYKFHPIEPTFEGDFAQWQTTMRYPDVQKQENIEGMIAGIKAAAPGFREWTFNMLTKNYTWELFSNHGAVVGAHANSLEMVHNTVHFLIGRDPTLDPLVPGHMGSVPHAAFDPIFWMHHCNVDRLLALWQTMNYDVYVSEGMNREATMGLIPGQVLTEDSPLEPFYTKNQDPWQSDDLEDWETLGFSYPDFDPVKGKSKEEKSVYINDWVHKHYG

[2] = target: T1, mushroom TYR; assay: biochemical; settings: read-out: % inhibition at 25 μg/mL
Target sequence in this assay (C7FF04 2-392): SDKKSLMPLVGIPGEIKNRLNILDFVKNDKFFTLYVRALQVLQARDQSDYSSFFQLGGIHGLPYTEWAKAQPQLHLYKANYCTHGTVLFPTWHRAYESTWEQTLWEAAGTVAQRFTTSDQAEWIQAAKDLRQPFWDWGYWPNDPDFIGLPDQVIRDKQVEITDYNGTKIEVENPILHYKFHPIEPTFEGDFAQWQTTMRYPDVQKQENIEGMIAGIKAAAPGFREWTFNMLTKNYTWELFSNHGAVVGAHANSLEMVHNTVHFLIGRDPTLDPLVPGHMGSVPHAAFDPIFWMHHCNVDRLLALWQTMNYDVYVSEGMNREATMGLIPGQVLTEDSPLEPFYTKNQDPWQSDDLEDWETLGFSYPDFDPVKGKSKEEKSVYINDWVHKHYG

- Ki [1]: 1010 nM
- inhibition type ([1]; diphenolase activity, L-DOPA oxidation, Lineweaver–Burk plots): mixed-type inhibition
- inhibition at 25 µg/mL [2]: 89 ± 3%
Structure (SMILES): COc1ccc(C2CC(c3ccc(C)cc3)=Nc3ccccc3S2)cc1OC (stereo not drawn) [compound 2, 2-(3,4-dimethoxyphenyl)-4-(p-tolyl)-2,3-dihydrobenzo[b][1,4]thiazepine]
